Test results from patent US20250388604A1, “Compounds and Their Use as PDE4 Activators” (Mironid Limited, priority 2022, published 2025).

Test system: m-IMCD3 cells
Assay: Inhibition of PGE2-stimulated in vitro cyst formation in m-IMCD3 cells
Format: cell-based, mouse
Conditions: Mus musculus, mIMCD3, 144 h, mean cyst area, 100% for (DMSO + PGE2) and 0% for DMSO control, 6 days of culture; for activity at 10 µM: read-out: % Cyst area after incubation with 10 μM test compound
Method: HEK 293 and MDCK cells (Public Health England, Cell Culture Collections) were maintained in Dulbecco's Modified Eagle's Medium (DMEM) supplemented with 10% (v/v) fetal bovine serum (FBS) (Seralab), 2 mM L-glutamine and 100 U/mL penicillin streptomycin cocktail (ThermoFisher); termed complete media. Clonal HEK 293 cell lines were maintained in complete media supplemented with 0.6 mg/ml G418 (Enzo Life Sciences). Mouse inner medullary collecting duct (m-IMCD3) cells [American Type Culture Collection (ATCC)] were maintained in media consisting of DMEM/Hams F-12 50/50 Mix (DMEM F12; Corning) supplemented with penicillin streptomycin cocktail (100 U/mL) and FBS (10% v/v) (DMEM F12-10% FBS).
The mouse Inner Medullary Collecting Duct cell line (m-IMCD3) spontaneously forms cystic spheroids in 3D culture with a Type 1 collagen/Matrigel extracellular matrix. This process can be stimulated with agents which raise intracellular cAMP and is used as an in vitro model for the formation of cystic structures in the kidneys of patients with ADPKD.
Rat Collagen I (Fisher Scientific) is prepared on ice by neutralising with 1M NaOH and diluting with a 2× volume of DMEM/F12+10% FBS. This is mixed 1:1.1 with ice cold Matrigel (Corning) for coating plates (coating mix), and 1:0.93 with Matrigel for cell plating (plating mix).
The assay is conducted in the wells of a 96-well plate culture dish using a total volume of 130 μL of collagen/Matrigel/DMEM F12-10% FBS suspension in growth media for each matrix plug per individual well. Initially, 30 μL of collagen/Matrigel/DMEM F12-10% FBS (coating mix) is added into the well of a 96 well plate and the collagen is set to a gel by incubating at 37° C. for at least 15 minutes. A second layer of 100 μL collagen/Matrigel suspension (plating mix) containing m-IMCD3 cells (2.75×10^6 m-IMCD3 cells per 96-well plate) is layered over the coating mix and the collagen/Matrigel/cell mix again set to a gel by incubating at 37° C. Cell cultures are maintained at 37° C. in an atmosphere of 5% CO2, 95% air.
Between 18 and 24 h after plating, test compound(s) as DMSO stock solutions [0.1% (v/v) final DMSO concentration] and PGE2 (100 nM final concentration) in DMEM F12-10% FBS are added in quadruplicate wells per condition. Media, together with the test compound and PGE2 are replenished after 2 or 3 days. After 6 days of culture z stack images of the wells are captured using the Nikon Eclipse Ti2-E microscope. Nikon General Analysis software is used to measure the following parameters in each well: the mean cyst area, the number of cysts, and the total cyst area.
PDE4 long form activators inhibited in vitro cyst formation in m-IMCD3 cells. Data are shown in Table 4 as mean cyst area (%), compared to 100% for (DMSO+PGE2) and 0% for DMSO control.

CN1CC2CCC(C1)N2c1nc2c(s1)CN(C(=O)CC1CCCC1)CC2(C)C [Example 102, 2-cyclopentyl-1-(7,7-dimethyl-2-(3-methyl-3,8-diazabicyclo[3.2.1]octan-8-yl)-6,7-dihydrothiazolo[5,4-c]pyridin-5(4H)-yl)ethan-1-one]
activity at 10 µM: -3%

CN1CC2CCC(C1)N2c1nc2c(s1)CN(C(=O)CC1CCC(F)(F)CC1)CC2(C)C [Example 103, 2-(4,4-difluorocyclohexyl)-1-(7,7-dimethyl-2-(3-methyl-3,8-diazabicyclo[3.2.1]octan-8-yl)-6,7-dihydrothiazolo[5,4-c]pyridin-5(4H)-yl)ethan-1-one]
activity at 10 µM: -1%

CN1CCN(c2nc3c(s2)CN(C(=O)CC2CCC(F)(F)CC2)CC3(C)C)CC1 [Example 104, 2-(4,4-difluorocyclohexyl)-1-(7,7-dimethyl-2-(4-methylpiperazin-1-yl)-6,7-dihydrothiazolo[5,4-c]pyridin-5(4H)-yl)ethan-1-one]
activity at 10 µM: 0%

O=S(=O)(CC1CCCC1)N1CCc2nc(N3C4CCC3CNC4)sc2C1 [Example 107, 2-(3,8-diazabicyclo[3.2.1]octan-8-yl)-5-((cyclopentylmethyl)sulfonyl)-4,5,6,7-tetrahydrothiazolo[5,4-c]pyridine]
activity at 10 µM: -16%

O=C(CC1CCCC1)N1CCc2nc(N3CCNCC3)sc2C1 [Example 109, 2-cyclopentyl-1-(2-(piperazin-1-yl)-6,7-dihydrothiazolo[5,4-c]pyridin-5(4H)-yl)ethan-1-one]
activity at 10 µM: 6%

O=C(COc1ccc(F)cc1)N1CCc2nc(N3CCNCC3)sc2C1 [Example 110, 2-(4-fluorophenoxy)-1-(2-(piperazin-1-yl)-6,7-dihydrothiazolo[5,4-c]pyridin-5(4H)-yl)ethan-1-one]
activity at 10 µM: -5%

O=C(CC1CCCC1)N1CCc2nc(N3CCN[C@H](CO)C3)sc2C1 [Example 116, (S)-2-cyclopentyl-1-(2-(3-(hydroxymethyl)piperazin-1-yl)-6,7-dihydrothiazolo[5,4-c]pyridin-5(4H)-yl)ethan-1-one]
activity at 10 µM: 55%

O=C(CC1CCCC1)N1CCc2nc(N3CCN[C@@H](CO)C3)sc2C1 [Example 117, (R)-2-cyclopentyl-1-(2-(3-(hydroxymethyl)piperazin-1-yl)-6,7-dihydrothiazolo[5,4-c]pyridin-5(4H)-yl)ethan-1-one]
activity at 10 µM: 1%

CC1(C)CC(CC(=O)N2CCc3nc(N4C5CCC4CNC5)sc3C2)C1 [Example 119, 1-(2-(3,8-diazabicyclo[3.2.1]octan-8-yl)-6,7-dihydrothiazolo[5,4-c]pyridin-5(4H)-yl)-2-(3,3-dimethylcyclobutyl)ethan-1-one]
activity at 10 µM: -10%

CC1(C)CCCN1C(=O)N1CCc2nc(N3C4CCC3CNC4)sc2C1 [Example 120, (2-(3,8-diazabicyclo[3.2.1]octan-8-yl)-6,7-dihydrothiazolo[5,4-c]pyridin-5(4H)-yl)(2,2-dimethylpyrrolidin-1-yl)methanone]
activity at 10 µM: 2%

CC1(C)CCN(C(=O)N2CCc3nc(N4C5CCC4CNC5)sc3C2)C1 [Example 121, (2-(3,8-diazabicyclo[3.2.1]octan-8-yl)-6,7-dihydrothiazolo[5,4-c]pyridin-5(4H)-yl)(3,3-dimethylpyrrolidin-1-yl)methanone]
activity at 10 µM: 0%

O=C(N1CCc2nc(N3C4CCC3CNC4)sc2C1)N1CCC2(CCCC2)C1 [Example 122, (2-(3,8-diazabicyclo[3.2.1]octan-8-yl)-6,7-dihydrothiazolo[5,4-c]pyridin-5(4H)-yl)(2-azaspiro[4.4]nonan-2-yl)methanone]
activity at 10 µM: -8%

O=C(N1CCc2nc(N3C4CCC3CNC4)sc2C1)N1CCC2(CCC2)C1 [Example 123, (2-(3,8-diazabicyclo[3.2.1]octan-8-yl)-6,7-dihydrothiazolo[5,4-c]pyridin-5(4H)-yl)(6-azaspiro[3.4]octan-6-yl)methanone]
activity at 10 µM: -4%

CC1(NC(=O)N2CCc3nc(N4C5CCC4CNC5)sc3C2)CCC1 [Example 124, 2-(3,8-diazabicyclo[3.2.1]octan-8-yl)-N-(1-methylcyclobutyl)-6,7-dihydrothiazolo[5,4-c]pyridine-5(4H)-carboxamide]
activity at 10 µM: -12%

CC1(NC(=O)N2CCc3nc(N4C5CCC4CNC5)sc3C2)CCCC1 [Example 125, 2-(3,8-diazabicyclo[3.2.1]octan-8-yl)-N-(1-methylcyclopentyl)-6,7-dihydrothiazolo[5,4-c]pyridine-5(4H)-carboxamide]
activity at 10 µM: -11%

COCCOc1ccccc1OCC(=O)N1CCc2nc(N3C4CCC3CNC4)sc2C1 [Example 129, 1-(2-(3,8-diazabicyclo[3.2.1]octan-8-yl)-6,7-dihydrothiazolo[5,4-c]pyridin-5(4H)-yl)-2-(2-(2-methoxyethoxy)phenoxy)ethan-1-one]
activity at 3 µM (3 μM, read-out: % Cyst area after incubation with 3 μM test compound): 3%

CC1(CC(=O)N2CCc3nc(N4C5CCC4CNC5)sc3C2)CCC1 [Example 130, 1-(2-(3,8-diazabicyclo[3.2.1]octan-8-yl)-6,7-dihydrothiazolo[5,4-c]pyridin-5(4H)-yl)-2-(1-methylcyclobutyl)ethan-1-one]
activity at 10 µM: -5%

COC(C(=O)N1CCc2nc(N3C4CCC3CNC4)sc2C1)c1ccc(F)cc1 (stereo not drawn) [Example 131, 1-(2-(3,8-diazabicyclo[3.2.1]octan-8-yl)-6,7-dihydrothiazolo[5,4-c]pyridin-5(4H)-yl)-2-(4-fluorophenyl)-2-methoxyethan-1-one]
activity at 10 µM: -9%

O=C(C(O)c1ccc(F)cc1)N1CCc2nc(N3C4CCC3CNC4)sc2C1 (stereo not drawn) [Example 132, 1-(2-(3,8-diazabicyclo[3.2.1]octan-8-yl)-6,7-dihydrothiazolo[5,4-c]pyridin-5(4H)-yl)-2-(4-fluorophenyl)-2-hydroxyethan-1-one]
activity at 10 µM: -6%

O=C(C1CCCO1)N1CCc2nc(N3C4CCC3CNC4)sc2C1 (stereo not drawn) [Example 133, (2-(3,8-diazabicyclo[3.2.1]octan-8-yl)-6,7-dihydrothiazolo[5,4-c]pyridin-5(4H)-yl)(tetrahydrofuran-2-yl)methanone]
activity at 10 µM: 19%

COC1(CC(=O)N2CCc3nc(N4C5CCC4CNC5)sc3C2)CCCC1 [Example 134, 1-(2-(3,8-diazabicyclo[3.2.1]octan-8-yl)-6,7-dihydrothiazolo[5,4-c]pyridin-5(4H)-yl)-2-(1-methoxycyclopentyl)ethan-1-one]
activity at 10 µM: -4%

COCC1(CC(=O)N2CCc3nc(N4C5CCC4CNC5)sc3C2)CCCC1 [Example 135, 1-(2-(3,8-diazabicyclo[3.2.1]octan-8-yl)-6,7-dihydrothiazolo[5,4-c]pyridin-5(4H)-yl)-2-(1-(methoxymethyl)cyclopentyl)ethan-1-one]
activity at 10 µM: -6%

O=C(Cc1cnccn1)N1CCc2nc(N3C4CCC3CNC4)sc2C1 [Example 136, 1-(2-(3,8-diazabicyclo[3.2.1]octan-8-yl)-6,7-dihydrothiazolo[5,4-c]pyridin-5(4H)-yl)-2-(pyrazin-2-yl)ethan-1-one]
activity at 10 µM: 18%

O=C(CC1CCC(F)(F)C1)N1CCc2nc(N3C4CCC3CNC4)sc2C1 (stereo not drawn) [Example 137, 1-(2-(3,8-diazabicyclo[3.2.1]octan-8-yl)-6,7-dihydrothiazolo[5,4-c]pyridin-5(4H)-yl)-2-(3,3-difluorocyclopentyl)ethan-1-one]
activity at 10 µM: -4%

COc1ccccc1OCC(=O)N1CCc2nc(N3C4CCC3CNC4)sc2C1 [Example 138, 1-(2-(3,8-diazabicyclo[3.2.1]octan-8-yl)-6,7-dihydrothiazolo[5,4-c]pyridin-5(4H)-yl)-2-(2-methoxyphenoxy)ethan-1-one]
activity at 10 µM: 0%

COc1ccccc1CC(=O)N1CCc2nc(N3C4CCC3CNC4)sc2C1 [Example 139, 1-(2-(3,8-diazabicyclo[3.2.1]octan-8-yl)-6,7-dihydrothiazolo[5,4-c]pyridin-5(4H)-yl)-2-(2-methoxyphenyl)ethan-1-one]
activity at 10 µM: -1%

COc1cc(F)ccc1CC(=O)N1CCc2nc(N3C4CCC3CNC4)sc2C1 [Example 140, 1-(2-(3,8-diazabicyclo[3.2.1]octan-8-yl)-6,7-dihydrothiazolo[5,4-c]pyridin-5(4H)-yl)-2-(4-fluoro-2-methoxyphenyl)ethan-1-one]
activity at 10 µM: 0%
